Data reported in PubChem BioAssay AID248 (DTP/NCI, 2004).
Values joined by “and” are separate entries in the source; they are usually repeats but may differ in a detail not shown here. Identical values can stand only once. Toxic doses and inconclusive results are not listed. Rule as the data show it: active = T/C of 150% or more; inactive = T/C below 125%. Peptide text beside a SMILES is read from it. * marks the point of attachment. Cbz = O=C(OCc1ccccc1)*; Bn = c1ccc(C*)cc1

Tested on: L1210 leukemia ip in BDF1 mice, survival T/C
Test: NCI In Vivo Anticancer Drug Screen. Data for tumor model L1210 Leukemia (intraperitoneal) in B6D2F1 (BDF1) mice
Details: endpoint: mean survival time, higher = longer survival
Method in brief: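 Transplanted-tumor mice were given test agent; controls received vehicle only. Survival readings from the two groups were divided (treated over control).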

[1] = dose: 100.0 mg/kg/injection, schedule: Q01DX001 (ip), vehicle: saline with Tween-80
[2] = dose: 100.0 mg/kg/injection, schedule: Q01DX009 (ip), vehicle: saline with Tween-80
[3] = dose: 100.0 mg/kg/injection, schedule: Q04DX002 (ip), vehicle: saline with Tween-80
[4] = dose: 100.0 mg/kg/injection, schedule: Q04DX003 (ip), vehicle: saline with Tween-80
[5] = dose: 200.0 mg/kg/injection, schedule: Q01DX001 (ip), vehicle: saline with Tween-80
[6] = dose: 200.0 mg/kg/injection, schedule: Q01DX009 (ip), vehicle: saline with Tween-80
[7] = dose: 200.0 mg/kg/injection, schedule: Q04DX002 (ip), vehicle: saline with Tween-80
[8] = dose: 200.0 mg/kg/injection, schedule: Q04DX003 (ip), vehicle: saline with Tween-80
[9] = dose: 400.0 mg/kg/injection, schedule: Q01DX001 (ip), vehicle: saline with Tween-80
[10] = dose: 400.0 mg/kg/injection, schedule: Q01DX009 (ip), vehicle: saline with Tween-80
[11] = dose: 400.0 mg/kg/injection, schedule: Q04DX002 (ip), vehicle: saline with Tween-80
[12] = dose: 400.0 mg/kg/injection, schedule: Q04DX003 (ip), vehicle: saline with Tween-80
[13] = dose: 100.0 mg/kg/injection, schedule: Q04DX003 (ip), vehicle: saline
[14] = dose: 200.0 mg/kg/injection, schedule: Q04DX003 (ip), vehicle: saline
[15] = dose: 400.0 mg/kg/injection, schedule: Q04DX003 (ip), vehicle: saline
[16] = dose: 75.0 mg/kg/injection, schedule: Q01DX001 (ip), vehicle: saline
[17] = dose: 150.0 mg/kg/injection, schedule: Q01DX001 (ip), vehicle: saline
[18] = dose: 300.0 mg/kg/injection, schedule: Q01DX001 (ip), vehicle: saline
[19] = dose: 100.0 mg/kg/injection, schedule: Q04DX003 (ip), vehicle: Klucel (hydroxypropylcellulose) (HPC)
[20] = dose: 200.0 mg/kg/injection, schedule: Q04DX003 (ip), vehicle: Klucel (hydroxypropylcellulose) (HPC)
[21] = dose: 400.0 mg/kg/injection, schedule: Q04DX003 (ip), vehicle: Klucel (hydroxypropylcellulose) (HPC)
[22] = dose: 100.0 mg/kg/injection, schedule: Q01DX009 (ip), vehicle: Klucel (hydroxypropylcellulose) (HPC)
[23] = dose: 200.0 mg/kg/injection, schedule: Q01DX009 (ip), vehicle: Klucel (hydroxypropylcellulose) (HPC)
[24] = dose: 400.0 mg/kg/injection, schedule: Q01DX009 (ip), vehicle: Klucel (hydroxypropylcellulose) (HPC)

Measured: T/C

NS(=O)(=O)c1ccc(NC(=O)Nc2cccc3ccccc23)cc1
inactive: [1] 91 % of control | [2] 101 % of control and 108 % of control | [3] 95 % of control and 100 % of control | [4] 105 % of control | [5] 87 % of control | [6] 93 % of control and 100 % of control | [7] 98 % of control and 100 % of control | [8] 103 % of control | [9] 94 % of control | [10] 96 % of control and 105 % of control | [11] 93 % of control and 96 % of control | [12] 108 % of control

Brc1ccc(C[N+]23CN4CN(CN(C4)C2)C3)cc1
inactive: dose: 15.0 mg/kg/injection, schedule: Q01DX015 (ip), vehicle: saline 103 % of control | dose: 30.0 mg/kg/injection, schedule: Q01DX015 (ip), vehicle: saline 102 % of control | dose: 60.0 mg/kg/injection, schedule: Q01DX015 (ip), vehicle: saline 102 % of control | [2] 101 % of control | [13] 105 % of control | dose: 120.0 mg/kg/injection, schedule: Q01DX015 (ip), vehicle: saline 105 % of control | [6] 102 % of control | [14] 103 % of control | dose: 240.0 mg/kg/injection, schedule: Q01DX015 (ip), vehicle: saline 98 % of control | [15] 92 % of control

CCOC(=O)c1ccc(NC(=O)Nc2ccc(OC)cc2Cl)cc1
inactive: [1] 96 % of control | [2] 104 % of control | [3] 94 % of control and 90 % of control | [4] 101 % of control | [5] 91 % of control | [6] 104 % of control | [7] 90 % of control and 91 % of control | [8] 97 % of control | [9] 106 % of control | [10] 92 % of control | [11] 94 % of control and 87 % of control | [12] 92 % of control

CCCCCCN1CC1
inactive: dose: 15.0 mg/kg/injection, schedule: Q01DX001 (ip), vehicle: saline 102 % of control | dose: 30.0 mg/kg/injection, schedule: Q01DX001 (ip), vehicle: saline 98 % of control

CCSCCCCO
inactive: [16] 101 % of control | dose: 75.0 mg/kg/injection, schedule: Q01DX009 (ip), vehicle: saline 102 % of control | [17] 101 % of control | dose: 150.0 mg/kg/injection, schedule: Q01DX009 (ip), vehicle: saline 100 % of control | [18] 97 % of control

O=C(CCCC(=O)N/N=C/c1ccccc1O)N/N=C\c1ccccc1O
inactive: dose: 50.0 mg/kg/injection, schedule: Q01DX001 (ip), vehicle: saline 87 % of control | dose: 100.0 mg/kg/injection, schedule: Q01DX001 (ip), vehicle: saline 90 % of control | dose: 400.0 mg/kg/injection, schedule: Q01DX001 (ip), vehicle: saline 90 % of control

COC(=O)C(NC(=O)C(CSCc1ccccc1)NC(=O)OCc1ccccc1)C(C)C (configuration not stated) (Cbz-Cys(Bn)-Val-OMe; configuration not given here)
inactive: [19] 95 % of control | [20] 97 % of control | [21] 95 % of control

CC1(C)c2ccccc2C(=O)C1(Br)Cc1ccccc1 (configuration not stated)
inactive: [2] 90 % of control

O=P(c1ccccc1)(c1ccccc1)C(Nc1ccc(Cl)cc1)c1ccco1 (configuration not stated)
inactive: dose: 400.0 mg/kg/injection, schedule: Q01DX009 (ip), vehicle: gum acacia 92 % of control

c1ccc(C2OC2(c2ccccc2)c2ccccc2)cc1 (configuration not stated)
inactive: [22] 95 % of control | [4] 101 % of control | [23] 102 % of control | [8] 92 % of control | [24] 102 % of control | [12] 95 % of control

CC(=O)Nc1c(Cl)cc(I)cc1Cl
inactive: [22] 103 % of control | [23] 103 % of control | [24] 97 % of control

N/C(=N/N=C/c1ccncc1)N/N=C\c1ccncc1
inactive: dose: 30.0 mg/kg/injection, schedule: Q01DX Z (ip), vehicle: carboxymethylcellulose (CMC) 89 % of control | dose: 30.0 mg/kg/injection, schedule: Q01DX Z (oral), vehicle: carboxymethylcellulose (CMC) 106 % of control | dose: 60.0 mg/kg/injection, schedule: Q01DX Z (ip), vehicle: carboxymethylcellulose (CMC) 87 % of control | dose: 60.0 mg/kg/injection, schedule: Q01DX Z (oral), vehicle: carboxymethylcellulose (CMC) 95 % of control | dose: 120.0 mg/kg/injection, schedule: Q01DX Z (ip), vehicle: carboxymethylcellulose (CMC) 92 % of control | dose: 120.0 mg/kg/injection, schedule: Q01DX Z (oral), vehicle: carboxymethylcellulose (CMC) 97 % of control and 123 % of control | dose: 240.0 mg/kg/injection, schedule: Q01DX Z (oral), vehicle: carboxymethylcellulose (CMC) 101 % of control and 104 % of control | dose: 480.0 mg/kg/injection, schedule: Q01DX Z (oral), vehicle: carboxymethylcellulose (CMC) 101 % of control

Cc1ccc(NC(=S)/C(=C(/[O-])c2ccc([N+](=O)[O-])cc2)[n+]2ccccc2)c(C)c1
inactive: [22] 101 % of control | [23] 97 % of control | [24] 95 % of control

NNC(=O)c1c[nH]c2ccccc2c1=O
inactive: dose: 12.5 mg/kg/injection, schedule: Q01DX009 (ip), vehicle: Klucel (hydroxypropylcellulose) (HPC) 95 % of control | dose: 25.0 mg/kg/injection, schedule: Q01DX009 (ip), vehicle: Klucel (hydroxypropylcellulose) (HPC) 90 % of control | dose: 50.0 mg/kg/injection, schedule: Q01DX009 (ip), vehicle: Klucel (hydroxypropylcellulose) (HPC) 94 % of control

CNC(=O)C1C2CCC(C2)C1C(=O)NC (configuration not stated)
inactive: dose: 75.0 mg/kg/injection, schedule: Q04DX003 (ip), vehicle: saline 97 % of control | [13] 96 % of control | dose: 150.0 mg/kg/injection, schedule: Q04DX003 (ip), vehicle: saline 95 % of control | [14] 96 % of control | dose: 300.0 mg/kg/injection, schedule: Q04DX003 (ip), vehicle: saline 97 % of control | [15] 96 % of control

CCCCCCCCN(C)N=Nc1ccc(Cl)cc1C(=O)O
inactive: dose: 150.0 mg/kg/injection, schedule: Q01DX009 (ip), vehicle: Klucel (hydroxypropylcellulose) (HPC) 117 % of control

O=C(Nc1ccccc1)c1ccccc1
inactive: [19] 97 % of control | [20] 94 % of control | [21] 103 % of control

CCC[CH2][Ge]([CH2]CCC)[CH2]CCC.CCC[CH2][Ge]([CH3])[CH2]CCC
inactive: [3] 93 % of control | [7] 89 % of control | [11] 93 % of control

CCC(C)NCCNCCNC(C)CC (configuration not stated)
inactive: dose: 6.25 mg/kg/injection, schedule: Q01DX009 (ip), vehicle: saline 101 % of control | dose: 6.25 mg/kg/injection, schedule: Q04DX003 (ip), vehicle: Klucel (hydroxypropylcellulose) (HPC) 102 % of control | dose: 12.5 mg/kg/injection, schedule: Q01DX009 (ip), vehicle: saline 108 % of control | dose: 12.5 mg/kg/injection, schedule: Q04DX003 (ip), vehicle: Klucel (hydroxypropylcellulose) (HPC) 102 % of control | dose: 25.0 mg/kg/injection, schedule: Q01DX009 (ip), vehicle: saline 90 % of control | dose: 25.0 mg/kg/injection, schedule: Q04DX003 (ip), vehicle: Klucel (hydroxypropylcellulose) (HPC) 109 % of control

O=C(NCCCl)NC(Cc1ccccc1)Cc1ccccc1
inactive: [19] 95 % of control | [20] 91 % of control | [21] 95 % of control

O=C1c2ccccc2C(=O)N1C/C=C/Cl
inactive: [4] 104 % of control | [8] 108 % of control | [12] 101 % of control

CCCc1cc(C)cc(N=Cc2ccccc2)c1O
inactive: [4] 101 % of control | [8] 97 % of control | [12] 98 % of control

CC(=O)Nc1ccc(S(=O)(=O)Cl)cc1Cl
inactive: [16] 96 % of control | [17] 98 % of control | [18] 99 % of control

OCCCCCCCCCCCCO
inactive: [4] 105 % of control | [8] 94 % of control | [12] 103 % of control

O=C(O)CSc1ccc(NC(=O)NC2CCCCC2)cc1
inactive: [2] 96 % of control | dose: 100.0 mg/kg/injection, schedule: Q04DX003 (ip), vehicle: saline sonified 114 % of control | [6] 91 % of control | dose: 200.0 mg/kg/injection, schedule: Q04DX003 (ip), vehicle: saline sonified 89 % of control | [10] 88 % of control | dose: 400.0 mg/kg/injection, schedule: Q04DX003 (ip), vehicle: saline sonified 96 % of control
